Test: In vitro release of Ketotifen-hydrogenfumarate from drug-loaded polymeric matrix
Assay type: physicochemical
Settings: under the same conditions (stirred aqueous system)
Procedure: Two consecutive batches of the polymeric matrix were prepared at lab scale and loaded with the selected water-soluble investigational drug, Ketotifen hydrogenfumarate in accordance with the method described in Example 11. The in vitro release profile of the Ketotifen depot formulation was carried out as follows: […]
1 g of the dry polymeric matrix loaded with Ketotifen-hydrogenfumarate according to Example 11. was stirred with 600 r.p.m. in 50 ml of deionised water at 37° C. The released amount of Ketotifen-hydrogenfumarate was determined by HPLC.
Matrices with 8% Ketotifen load were prepared as described in Example 11. Using two different Hyaluronic acid containing reaction mixtures. One contained 1%, while the other 0.5% hyaluronic acid. […] (See Table 7.) The in vitro dissolution test was performed as described in Example 12.

release compared with the matrix: much faster
SMILES: CN1CCC(=C2c3ccccc3CC(=O)c3sccc32)CC1 [non-formulated plain Ketotifen, Ketotifen-hydrogenfumarate]

From patent US20080299166A1, “NOVEL BIOMATERIALS, THEIR PREPARATION AND USE” (priority 2002, published 2008)
